Test results published in ChEMBL document CHEMBL4619710, “Study on structure-activity relationship of vitamin K derivatives: Conversion of the naphthoquinone part into another aromatic ring and evaluation of their neuronal differentiation-inducing activity” (2020).
Active and inactive are the calls of the source. The calls are words filed in the database; no cut-off is given here.

Tests used:
Assay type in all cases: functional
Mus musculus [1] = species: Mus musculus; assay: Induction of neuronal differentiation of neuronal progenitor cells isolated from embryonic mouse cerebrum assessed as increase in MAP2 mRNA expression at 1 uM by real time PCR analysis
Mus musculus [2] = species: Mus musculus; assay: Induction of neuronal differentiation of neuronal progenitor cells isolated from embryonic mouse cerebrum at 1 uM treated every second day for 4 days and measured after 48 hrs by DAPI/MAP2 fluorescent immunostaining based assay
[3] = Induction of neuronal differentiation of neuronal progenitor cells isolated from embryonic mouse cerebrum assessed as increase in MAP2 mRNA expression at 1 uM by real time PCR analysis relative to control

| SMILES | Activity (Mus musculus [1]) | Activity (Mus musculus [2]) | fold change (FC) [3] |
| --- | --- | --- | --- |
| CC(C)=CCC/C(C)=C/Cc1cccc(C)c1 | inactive | inactive | – |
| COC1=C(OC)C(=O)C(C/C=C(\C)CCC=C(C)C)=C(C)C1=O | – | inactive | – |
| COC1=C(OC)C(=O)C(C/C=C(\C)CC/C=C(\C)CCC=C(C)C)=C(C)C1=O | – | inactive | – |
| CC(C)=CCC/C(C)=C/CC/C(C)=C/CC1=C(C)C(=O)C(C)=C(C)C1=O | Active | Active | 2 |
| CC1=CC(=O)c2ccccc2C1=O | – | Active | – |
| CC(C)=CCC/C(C)=C/CC1=C(C)C(=O)c2ccccc2C1=O | Active | Active | – |
| CC(C)=CCC/C(C)=C/CC/C(C)=C/Cc1cccc(C)c1 | inactive | inactive | – |
| CC(C)=CCC/C(C)=C/CC/C(C)=C/Cc1ccccc1C | inactive | inactive | – |
| COC1=C(OC)C(=O)C(C/C=C(\C)CC/C=C(\C)CC/C=C(\C)CCC=C(C)C)=C(C)C1=O | Active | Active | – |
| CC(C)=CCC/C(C)=C/CC1=C(C)C(=O)C(C)=C(C)C1=O | Active | Active | 2 |
| CC(C)=CCC/C(C)=C/Cc1ccccc1C | inactive | inactive | – |
| CC(C)=CCC/C(C)=C/CC/C(C)=C/CC1=C(C)C(=O)c2ccccc2C1=O | Active | Active | – |
| CC(C)=CCC1=C(C)C(=O)c2ccccc2C1=O | Active | Active | – |
